Source: patent publication US20040235908A1, “3,4-Di-substituted cyclobutene-1,2-diones as CXC-chemokine receptor antagonists” (Schering Corporation, priority 2001, published 2004)

Target: T1, hCXCR2 (Homo sapiens, UniProt P25025)
T1 construct: purchased Biosignal; host or cells: CHO cells overexpressing hCXCR2 (membrane preparation)
T1 sequence (P25025 1-360): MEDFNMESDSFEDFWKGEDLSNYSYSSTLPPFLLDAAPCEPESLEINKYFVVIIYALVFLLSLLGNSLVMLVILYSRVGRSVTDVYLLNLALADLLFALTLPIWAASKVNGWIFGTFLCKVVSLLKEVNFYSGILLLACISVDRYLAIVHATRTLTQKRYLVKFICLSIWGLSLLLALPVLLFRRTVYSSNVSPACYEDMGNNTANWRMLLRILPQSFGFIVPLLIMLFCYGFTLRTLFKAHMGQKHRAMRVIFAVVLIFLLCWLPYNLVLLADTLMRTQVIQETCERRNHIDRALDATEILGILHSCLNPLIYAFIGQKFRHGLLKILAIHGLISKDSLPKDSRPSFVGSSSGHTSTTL
Assay: CXCR2 SPA receptor binding assay
Details: hCXCR2-CHO overexpressing membranes, [125I]-IL-8 ligand 0.1 nM
Description: For each well of a 96 well plate, a reaction mixture of 4 μg hCXCR2-CHO overexpressing membranes (Biosignal) and 200 μg/well WGA-SPA beads (Amersham) in 100 μl was prepared in CXCR2 assay buffer (25 mM HEPES, pH 7.4, 2 mM CaCl2, 1 mM MgCl2). A 0.4 nM stock of ligand, [125I]-IL-8 (NEN), was prepared in the CXCR2 assay buffer. […] stock solutions of test compounds were prepared in DMSO (Sigma). A 6× stock solution of GRO-α (R&D) was prepared in CXCR2 assay buffer. The above solutions were added to a 96-well assay plate (PerkinElmer or Coming) as follows: 10 μl test compound or DMSO, 40 ul CXCR2 assay buffer or GRO-α stock, 100 μl of reaction mixture, 50 μl of ligand stock (Final [Ligand]=0.1 nM). When 40× stock solutions of test compounds in DMSO were prepared, then the above protocol was used except instead 5 μl test compound or DMSO and 45 μl CXCR2 assay buffer were used. The assay plates were shaken for 5 minutes on a plate shaker, then incubated for 2-8 hours before cpm/well were determined in Microbeta Trilux counter (PerkinElmer). % Inhibition of total binding minus non-specific binding (250 nM Gro-α or 50 μM antagonist) was determined and IC50 values calculated.

SMILES	IC50 [µM]
O=C(c1cccc(Nc2c(Nc3ccccc3)c(=O)c2=O)c1O)N1CCOCC1 [Example 45]	0.01
CC(C)c1ccccc1Nc1c(Nc2cccc(C(=O)N(C)C)c2O)c(=O)c1=O [Example 64]	0.028
